Patent US20220162182A1, “KINASE INHIBITOR COMPOUNDS AND COMPOSITIONS AND METHODS OF USE” (ICAHN SCHOOL OF MEDICINE AT MOUNT SINAI, priority 2018, published 2022)

Key:
[1] = molecular target: T1, DYRK1/DYRK1A (Homo sapiens, UniProt Q13627); assay: DYRK1/DYRK1A IC50 assay (Reaction Biology Corp.); type: biochemical; conditions: DYRK1/DYRK1A assay from Reaction Biology Corp.
T1 construct: purchased Reaction Biology Corp

[2] = molecular target: T2, DYRK1A (Homo sapiens, UniProt Q13627); assay: KINOMEscan DYRK1A binding assay (DiscoverX), Kd determination; conditions: eleven serial three fold dilutions, highest concentration 60 μM, several values in a cell = repeat determinations
T2 construct: purchased DiscoverX
Method: Compounds were tested for DYRK1A binding activity at DiscoverX. DiscoverX uses proprietary KINOMEscan® Assay (Fabian et al., “A Small Molecule-kinase Interaction Map for Clinical Kinase Inhibitors,” Nat. Biotechnol. 23(3):329-336 (2005), which is hereby incorporated by reference in its entirety). Compounds were screened for DYRK1A activity at a single concentration of 3 μM in duplicates. Similarly, the dissociation constant Kd of the hit compounds from the initial screening was determined at DiscoverX using their proprietary KINOMEscan® Assay. Kd values are determined using eleven serial three fold dilutions with the highest concentration of 60 μM.

## C[C@@H](Nc1cncc(-c2ccc3[nH]c(=O)[nH]c3c2)c1)c1ccccc1 [Compound 68a, (R)-5-(5-((1-Phenylethyl)amino)pyridin-3-yl)-1H-benzo[d]imidazol-2(3H)-one]
[1]
  IC50: 0.21 nM
[2]
  Kd: 0.59 nM

## O=c1[nH]c2ccc(-c3cncc(NCCCc4ccccc4)c3)cc2[nH]1 [Compound 30p, 5-(5-((3-Phenylpropyl)amino)pyridin-3-yl)-1H-benzo[d]imidazol-2(3H)-one]
[1]
  IC50: 1.83 nM
[2]
  Kd: 15 nM

## C[C@H](Nc1cncc(-c2ccc3[nH]c(=O)[nH]c3c2)c1)c1ccccc1 [Compound 68b, (S)-5-(5-((1-Phenylethyl)amino)pyridin-3-yl)-1H-benzo[d]imidazol-2(3H)-one]
[1]
  IC50: 2.18 nM
[2]
  Kd: 7.5 nM

## N[C@H](Cc1ccccc1)c1cncc(-c2ccc3[nH]c(=O)[nH]c3c2)c1 [Compound 65a, (R)-5-(5-(1-Amino-2-phenylethyl)pyridin-3-yl)-1H-benzo[d]imidazol-2(3H)-one]
[1]
  IC50: 3.98 nM
[2]
  Kd: 3.2 nM

## N[C@@H](Cc1ccccc1)c1cncc(-c2ccc3[nH]c(=O)[nH]c3c2)c1 [Compound 65b, (S)-5-(5-(1-Amino-2-phenylethyl)pyridin-3-yl)-1H-benzo[d]imidazol-2(3H)-one]
[1]
  IC50: 23.2 nM
[2]
  Kd: 15 nM

## Cn1c(=O)[nH]c2ccc(-c3cncc(NCc4ccccc4F)c3)cc21 [Compound 30q, 6-(5-((2-Fluorobenzyl)amino)pyridin-3-yl)-1-methyl-1H-benzo[d]imidazol-2(3H)-one]
[1]
  IC50: 0.3 nM
[2]
  Kd: 0.86 nM

## Cn1c(=O)[nH]c2ccc(-c3cncc(NCc4ccccc4Cl)c3)cc21 [Compound 30r, 6-(5-((2-Chlorobenzyl)amino)pyridin-3-yl)-1-methyl-1H-benzo[d]imidazol-2(3H)-one]
[1]
  IC50: 0.1 nM
[2]
  Kd: 1.3 nM

## O=c1[nH]c2ccc(-c3cncc(NCc4ccc(-c5ccccc5)cc4)c3)cc2[nH]1 [Compound 30h, 5-(5-(([1,1′-Biphenyl]-4-ylmethyl)amino)pyridin-3-yl)-1H-benzo[d]imidazol-2(3H)-one]
[2]
  Kd: 1200 nM
